According to US8198273B2, “Compounds and methods for kinase modulation, and indications therefor” (Plexxikon Inc., priority 2009, dated 2012):

What was measured:
A-Raf = biological target: T1, A-Raf (Homo sapiens, UniProt P10398); test: A-Raf biochemical kinase inhibition (AlphaScreen, biotin-MEK1 substrate); settings: 100 μM ATP
T1 sequence (P10398 1-606): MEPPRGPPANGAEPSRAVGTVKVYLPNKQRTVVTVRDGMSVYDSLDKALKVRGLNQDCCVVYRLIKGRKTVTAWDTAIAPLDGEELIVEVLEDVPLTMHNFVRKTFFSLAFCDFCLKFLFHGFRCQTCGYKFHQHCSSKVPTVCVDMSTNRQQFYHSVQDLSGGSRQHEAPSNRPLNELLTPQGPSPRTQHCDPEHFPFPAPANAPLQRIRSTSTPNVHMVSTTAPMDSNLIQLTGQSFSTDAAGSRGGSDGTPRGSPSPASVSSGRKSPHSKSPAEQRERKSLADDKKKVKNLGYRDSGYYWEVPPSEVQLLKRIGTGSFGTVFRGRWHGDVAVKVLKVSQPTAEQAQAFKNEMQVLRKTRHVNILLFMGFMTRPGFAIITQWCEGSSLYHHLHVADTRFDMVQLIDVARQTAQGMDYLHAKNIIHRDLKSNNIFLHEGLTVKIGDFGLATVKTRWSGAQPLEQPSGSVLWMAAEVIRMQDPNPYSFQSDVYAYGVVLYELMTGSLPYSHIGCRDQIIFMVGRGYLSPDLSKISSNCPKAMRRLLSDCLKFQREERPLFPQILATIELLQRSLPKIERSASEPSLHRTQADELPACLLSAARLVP
Description: Compounds to be tested are diluted in dimethyl sulfoxide to a concentration of 0.1 mM. These are serially diluted 15 μL into 30 μL of dimethyl sulfoxide seven times in 96 well plates for a total of 8 dilution points, and for each dilution point 1 μL is added to a well of an assay plate. […] The reaction is started with addition of 10 μL of 200 μM ATP (i.e. final 100 μM ATP). […] The plates are incubated for 3 hours at room temperature and read on Envision reader (Perkin Elmer). […] The signal vs. compound concentration is used to determine the IC50.

c-Raf-1 = c-Raf-1 (Homo sapiens, UniProt P04049); test: c-Raf-1 biochemical kinase inhibition (AlphaScreen, biotin-MEK1 substrate); settings: 100 μM ATP
Method in brief: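 Eight-point compound series (made from a 0.1 mM DMSO stock) tested against each Raf enzyme with biotin-MEK1 substrate and 100 μM final ATP.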

CYP3A4(BQ) = CYP3A4(BQ) (Homo sapiens, UniProt P08684); test: CYP3A4(BQ) inhibition (fluorescent substrate); format: in vitro ADME; settings: read-out: Cyp IC50 3A4(BQ)
Method in brief: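 Compound, from a 100 mM DMSO stock and diluted 1:1 over 10 points in co-factor mix, was incubated at 37° C with enzyme and a known substrate. Decrease in fluorescent product against concentration gave the IC50.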

c-Raf-1, sequence (P04049 whole entry): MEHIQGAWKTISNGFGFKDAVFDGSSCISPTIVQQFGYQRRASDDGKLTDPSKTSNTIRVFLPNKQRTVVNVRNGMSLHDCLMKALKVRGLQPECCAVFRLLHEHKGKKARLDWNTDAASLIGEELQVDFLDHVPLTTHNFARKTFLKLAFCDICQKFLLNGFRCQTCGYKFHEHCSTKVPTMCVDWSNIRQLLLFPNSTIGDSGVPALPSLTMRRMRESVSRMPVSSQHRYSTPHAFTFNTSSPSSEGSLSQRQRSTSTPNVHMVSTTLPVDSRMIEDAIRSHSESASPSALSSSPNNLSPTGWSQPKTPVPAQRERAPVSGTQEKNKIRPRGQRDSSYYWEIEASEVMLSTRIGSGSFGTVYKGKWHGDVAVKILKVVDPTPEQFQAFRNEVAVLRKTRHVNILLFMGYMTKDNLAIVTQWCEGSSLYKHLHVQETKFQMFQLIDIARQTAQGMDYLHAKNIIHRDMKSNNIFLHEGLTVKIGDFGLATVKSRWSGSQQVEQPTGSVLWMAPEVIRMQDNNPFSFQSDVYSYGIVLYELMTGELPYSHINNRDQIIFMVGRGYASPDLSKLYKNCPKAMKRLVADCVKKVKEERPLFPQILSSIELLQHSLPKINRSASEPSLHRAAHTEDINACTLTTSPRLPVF
CYP3A4(BQ), sequence (P08684 whole entry): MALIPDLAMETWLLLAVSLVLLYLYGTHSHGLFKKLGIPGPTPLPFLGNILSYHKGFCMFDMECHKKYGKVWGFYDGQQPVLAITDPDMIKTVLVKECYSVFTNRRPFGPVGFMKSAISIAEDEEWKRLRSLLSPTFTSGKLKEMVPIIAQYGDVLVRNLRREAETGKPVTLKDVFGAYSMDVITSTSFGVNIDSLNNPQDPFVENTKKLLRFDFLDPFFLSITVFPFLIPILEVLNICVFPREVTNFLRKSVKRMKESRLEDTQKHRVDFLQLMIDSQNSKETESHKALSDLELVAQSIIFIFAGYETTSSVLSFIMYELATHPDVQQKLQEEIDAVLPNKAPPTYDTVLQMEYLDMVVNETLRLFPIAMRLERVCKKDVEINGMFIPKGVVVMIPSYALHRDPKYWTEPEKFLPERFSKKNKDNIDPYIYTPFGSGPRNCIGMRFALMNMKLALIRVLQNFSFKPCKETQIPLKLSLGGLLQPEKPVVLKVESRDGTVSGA

Row | SMILES | IC50 (A-Raf) [nM] | IC50 (c-Raf-1) [nM] | IC50 (CYP3A4(BQ)) [nM]
1 | N#Cc1ccnc2[nH]cc(C(=O)c3c(F)ccc(NS(=O)(=O)c4cc(F)ccc4F)c3F)c12 [P-2036, N-[3-(4-Cyano-1H-pyrrolo[2,3-b]pyridine-3-carbonyl)-2,4-difluoro-phenyl]-2,5-difluoro-benzenesulfonamide] | < 10 | < 10 | > 10000
2 | N#Cc1ccnc2[nH]cc(C(=O)c3c(F)ccc(NS(=O)(=O)c4c(F)cccc4F)c3F)c12 [P-2037, N-[3-(4-Cyano-1H-pyrrolo[2,3-b]pyridine-3-carbonyl)-2,4-difluoro-phenyl]-2,6-difluoro-benzenesulfonamide] | < 10 | < 10 | > 10000
3 | N#Cc1ccnc2[nH]cc(C(=O)c3c(F)ccc(NS(=O)(=O)c4cccc(F)c4)c3F)c12 [P-2039, N-[3-(4-Cyano-1H-pyrrolo[2,3-b]pyridine-3-carbonyl)-2,4-difluoro-phenyl]-3-fluoro-benzenesulfonamide] | < 10 | < 10 | > 10000
4 | CCCS(=O)(=O)Nc1ccc(F)c(C(=O)c2c[nH]c3ncc(-c4ccc(NS(C)(=O)=O)cc4)cc23)c1F [P-2165, Propane-1-sulfonic acid {2,4-difluoro-3-[5-(4-methanesulfonylamino-phenyl)-1H-pyrrolo[2,3-b]pyridine-3-carbonyl]-phenyl}-amide] | < 10 | < 10 | > 10000
5 | CCCS(=O)(=O)Nc1ccc(F)c(C(=O)c2c[nH]c3ncc(-c4ccc(N5CCCC5)nc4)cc23)c1F [P-2231, Propane-1-sulfonic acid {2,4-difluoro-3-[5-(6-pyrrolidin-1-yl-pyridin-3-yl)-1H-pyrrolo[2,3-b]pyridine-3-carbonyl]-phenyl}-amide] | < 10 | < 100 | > 10000
6 | CCCS(=O)(=O)Nc1ccc(F)c(C(=O)c2c[nH]c3ncc(-c4ccc(OCCCN5CCOCC5)nc4)cc23)c1F [P-2236, Propane-1-sulfonic acid (2,4-difluoro-3-{5-[6-(3-morpholin-4-yl-propoxy)-pyridin-3-yl]-1H-pyrrolo[2,3-b]pyridine-3-carbonyl}-phenyl)-amide] | < 10 | < 10 | 5000 to 10000

Other lines, results leading:

Row | IC50 (A-Raf) [nM] | IC50 (c-Raf-1) [nM] | IC50 (CYP3A4(BQ)) [nM] | SMILES
7 | < 10 | < 10 | > 10000 | N#Cc1ccnc2[nH]cc(C(=O)c3c(F)ccc(NS(=O)(=O)c4ccccc4F)c3F)c12 [P-2020, N-[3-(4-Cyano-1H-pyrrolo[2,3-b]pyridine-3-carbonyl)-2,4-difluoro-phenyl]-2-fluoro-benzenesulfonamide]
8 | < 10 | < 10 | 5000 to 10000 | N#Cc1ccnc2[nH]cc(C(=O)c3c(F)ccc(NS(=O)(=O)c4cccnc4)c3F)c12 [P-2077, Pyridine-3-sulfonic acid [3-(4-cyano-1H-pyrrolo[2,3-b]pyridine-3-carbonyl)-2,4-difluoro-phenyl]-amide]
9 | < 10 | < 10 | > 10000 | CCCc1ccc(-c2cnc3[nH]cc(C(=O)c4c(F)ccc(NS(=O)(=O)CCC)c4F)c3c2)cn1 [P-2224, Propane-1-sulfonic acid {2,4-difluoro-3-[5-(6-propyl-pyridin-3-yl)-1H-pyrrolo[2,3-b]pyridine-3-carbonyl]-phenyl}-amide]
10 | < 10 | < 10 | > 10000 | CCCS(=O)(=O)Nc1ccc(F)c(C(=O)c2c[nH]c3ncc(-c4ccc(OCCN5CCCC5)nc4)cc23)c1F [P-2233, Propane-1-sulfonic acid (2,4-difluoro-3-{5-[6-(2-pyrrolidin-1-yl-ethoxy)-pyridin-3-yl]-1H-pyrrolo[2,3-b]pyridine-3-carbonyl}-phenyl)-amide]
11 | < 10 | < 10 | > 10000 | CCCS(=O)(=O)Nc1ccc(F)c(C(=O)c2c[nH]c3ncc(-c4ccc(OCCCN5CCCC5)nc4)cc23)c1F [P-2235, Propane-1-sulfonic acid (2,4-difluoro-3-{5-[6-(3-pyrrolidin-1-yl-propoxy)-pyridin-3-yl]-1H-pyrrolo[2,3-b]pyridine-3-carbonyl}-phenyl)-amide]
